“And” between values parts separate entries of the source, which are not always exact repeats. Identical values can stand only once. “Also recorded” adds a separate entry of the source. Like-named read-outs stand apart in the source and are kept apart here.

The test system of data set [1] is mouse cauda epididymal sperm. The data set can be described thus: Mouse sperm motility in HTF with compound, measured by CASA. It is filed as cell-based. Conditions: for development of sperm motility: incubated 30 min and 60 min; for inhibition of sperm motility in vitro: HTF with 1 mM analog, 5 to 60 min. As to the method: Sperm motility requires energy, the sources of which include both glycolysis and mitochondrial activity. The effects of four glycolytic inhibitors (3-bromopyruvate, 2-deoxyglucose, lonidamin and oxythiamine) on sperm motility were evaluated. First mouse cauda epididymal sperm were collected into PBS, HTF (sperm-activating solution), HTF supplemented with 1 mM 3-Bromopyruvate, HTF containing 1 mM 2-Deoxyglucose, HTF with 0.5 mM Lonidamin and HTF with 1 MM Oxythiamine. Epididymal sperm can gain partial motility in PBS, but will never develop hyperactivated motility, which is required for sperm to be competent to fertilize eggs. On the other hand, when epididymal sperm are incubated in human tubular fluid (HTF) medium, which contains all of the sperm motility-activating factors, sperm will quickly develop hyperactivated motility and the motility peaks within 30 minutes and can last at least for several hours at 37° C. In the present studies, mouse cauda epididymal sperm were incubated in PBS, HTF and HTF supplemented with the 4 compounds for 30 min and 60 min. Sperm motility was then measured by Computer-Assisted Sperm Analysis (CASA). […] These studies indicate that in the presence of 3BP (at 1 mM), sperm cannot develop motility.
To determine how quickly 3BP could immobilize sperm, mouse cauda epididymal sperm were collected into HTF and HTF supplemented with 1 mM 3BP, respectively. Sperm were then incubated at 37° C. for 5, 10, 20 30, 40 and 60 min, respectively. Sperm motility was completely lost within 10 minutes at 1 mM concentration and the inhibitory effect appeared to be permanent (see FIG. 3).
Given that 3BP could immobilize sperm, it was determined if analogs of 3BP could have the same effect. Four 3BP analogs, including methyl-pyruvate, ethyl-pyruvate, isoamyl-pyruvate and propyl-pyruvate, were tested to determine if they also had the inhibitory effect on sperm in vitro. In the first study, the effects of methyl-pyruvate and ethyl-pyruvate on sperm motility were evaluated (FIG. 4A). Mouse epididymal sperm were collected into HTF (control), HTF containing 1 mM Methyl-pyruvate and HTF with 1 mM ethyl-pyruvate, respectively. After incubation at 37° C. for 5, 10, 20, 30, 40 and 60 min, sperm motility was measured using CASA.

Data set [2] concerns mouse cauda epididymal sperm. As to the kind of experiment: Permanence of sperm immobilization: exposure in PBS, wash, activation in HTF, CASA. It is filed as cell-based. As to conditions: for motility development after short exposure and washout / motility developed in HTF after exposure and washing: 37° C.; for motility development after short exposure and washout: 5 min, washed, HTF 30 and 60 minutes; for motility developed in HTF after exposure and washing: PBS with 1 mM 3-BrPA, 1-30 min, washed twice, HTF 30 min and 60 min. As to the method:
Studies were then performed to determine if sperm-immobilizing effects of 3BP were permanent or transient. Mouse cauda epididymal sperm were collected into PBS (control), PBS containing 1 mM 3BP, PBS containing 1 mM deoxyglucose, PBS with 0.5 mM lonidamine and PBS with 1 mM oxythiamine, followed by incubation at 37° C. for 5 min. The compounds were then washed away with PBS and then the treated sperm were incubated in HTF medium for 30 minutes and 60 minutes, followed by measurement of sperm motility by CASA. […] Again, 3BP had the strongest effects. […] These studies indicate that the sperm motility-abolishing effect of 3BP was permanent. Further, once exposed, sperm will never be able to develop motility.
To determine if sperm exposed to 3BP could still be activated in HTF, mouse sperm from the cauda epididymis were collected into PBS (control) and PBS containing 1 mM 3-BrPA, respectively. Then sperm were incubated in 37° C. for 1, 5, 10, 20 and 30 min, respectively. To remove 3BP, the sperm were washed twice with PBS. The sperm were then transferred to the HTF medium and activated for 30 min (FIG. 5, A) and 60 min (FIG. 5, B), followed by measurement the sperm motility using CASA.

The next data set relates to sperm ATP production. As to the kind of experiment: Sperm ATP content, Luciferase Bioluminescence Assay kit. It is filed as cell-based. Conditions: 1 mM 3BP, during 60 min activation by HTF. As to the method:
The ATP production in sperm was measured with or without exposure to 1 mM 3BP during 60 min activation by HTF. Sperm ATP contents were measured using a Luciferase Bioluminescence Assay kit (FIG. 13). […] However, such a drastic suppression cannot be explained solely by its anti-glycolytic property because glycolysis provides only partial energy sperm motility requires.

Data set [3] deals with human "swim-up" sperm. The data set can be described thus: Motility of human swim-up sperm exposed to 3BP, CASA. It is filed as cell-based. Conditions: 1 mM 3BP. As to the method: In normal men in their reproductive ages, ˜30-40% of sperm in human ejaculates are immotile or display weak motility. A ‘swim-up” procedure allows motile sperm to be enriched. To see the potential of 3BP in suppressing sperm motility, the swim-up procedure was first performed to allow the collection of motile sperm and then the motile human sperm were exposed to 3BP to determine if their motility could be abolished. The human semen was left at room temperature for 30 minutes for liquidification and then 2˜3 ml pre-warmed HTF medium were added followed by centrifugation at 1,500 rpm for 5 min. The sperm pellets were resuspended in 1 ml pre-warmed HTF medium and then incubated at 37° C. in anincubator for 60 min. Motile sperm will “swim up” and stay in the upper portion of the medium, in which motile sperm are enriched in. The “swim-up” sperm were collected, 3BP added at a concentration of 1 mM, and the sperm were incubated for 1, 5, 10, 20 and 30 min at 37° C., respectively. Sperm motility was then measured using CASA (FIG. 6).

For a further data set, the system named is human semen. The data set can be described thus: Sperm motility in liquidified human semen with 3BP. It is filed as cell-based. As to conditions: 1 mM 3BP added directly to liquidified semen, 37° C. As to the method: To evaluate the effect of 3BP on sperm motility in human semen, human semen was liquidified under room temperature and 3BP was directly added into the liquidified semen at a concentration of 1 mM followed by incubation at 37° C. for 1, 5, 10, 20 and 30 minutes (FIGS. 7 and 8). These studies indicate that 3BP can completely abolish human sperm motility within 5 minutes of contact.

For data set [4], the system named is human "swim-up" sperm. The data set can be described thus: EC50 and EC100 for immobilizing human sperm within 20 seconds of contact, CASA. It is filed as cell-based. Conditions: for EC50: read-out: EC50 (50% of motile sperm immobilized within 20 seconds of contact). The protocol:
(§1) To determine at what concentrations 3BP can block the motility of 50% and 100% of the total motile sperm, mouse epididymal sperm were collected into PBS (pH 7.5) and then transferred to pre-warmed (37° C.) HTF medium containing serial dilutions of 3BP (pH 7.5) at concentrations ranging from 10 to 130 mM with a 10 mM increment. Motility was measured using CASA upon 20 seconds of contact with 3BP. […] Therefore, the 3BP EC50 is ˜40˜50 mM and EC100 is ˜100 mM for mouse epididymal sperm at pH 7.5 (FIG. 9). Similarly, the EC50 and EC100 of 3BP in immobilizing human sperm were determined. Human “swim-up” sperm were added to HTF containing 3BP at increasing concentrations ranging from 100 mM to 210 mM at pH 7.5. Sperm motility was measured upon 20 seconds of contact using CASA. […] However, the vaginal environment tends to be acidic (˜pH 5.0) and the effectiveness of 3BP in immobilizing sperm was further evaluated when pH was set at ˜5.0 (FIGS. 10 and 12).

Data set [5] has as its system sperm mitochondrial membrane potential. The data set can be described thus: Sperm mitochondrial membrane potential, JC-1 assays. In kind it is cell-based. Conditions: 3BP 1 mM. As to the method: (§2) Whether 3BP could block mitochondrial activity in sperm was further examined because mitochondria also contribute energy production in sperm (FIG. 14). […] In control sperm trajectory tracking assays, the cauda epididymal sperm were collected into the HTF medium and incubated for 1, 5, 10 and 20 min (FIG. 15). In 3BP-treated sperm trajectory tracking assays, the cauda epididymal sperm were collected HTF+1 mM 3-BrPA and incubated for 1, 5, 10 and 20 min (FIG. 15). In control human sperm trajectory tracking assays, the human “swim-up” sperm were incubated HTF for 1, 5, 10, and 20 minutes (FIG. 16). In 3BP-treated human sperm movie clips, the human “swim-up” sperm were incubated in HTF+1 mM 3-BrPA for 1, 5, 10 and 20 minutes (FIG. 16). Further, the histology of the vagina and uterus in female mice that received daily intravaginal application of 3BP (200-400 ul lubricant containing 20 mM 3BP) for 3 months was accessed.

For data set [6], the system named is mouse cauda epididymal sperm. The data set can be described thus: Mouse sperm motility in HTF with compound, measured by CASA. It is filed as cell-based. As to conditions: 1 mM 3BP, activated mouse sperm (HTF 30 minutes, 37° C.).
A further data set relates to mouse epididymal sperm. As to the kind of experiment: EC50 and EC100 for immobilizing mouse sperm within 20 seconds of contact, CASA. In kind it is cell-based. The protocol: as §1
In data set [7] the test system is vagina and uterus in female mice. As to the kind of experiment: Histology of vagina and uterus after daily intravaginal application. It is filed as in vivo. As to conditions: daily intravaginal 200-400 ul lubricant containing 20 mM 3BP, 3 months. As to the method: as §2

For `O=C(O)c1nn(Cc2ccc(Cl)cc2Cl)c2ccccc12` [lonidamin, reference compound], the “development of sperm motility” value in data set [1] (HTF with 0.5 mM Lonidamin) was “appeared to inhibit the development of sperm motility”. Further, in data set [2] (PBS with 0.5 mM lonidamine), the “motility development after short exposure and washout” value (from here on “motility development”) was “will permanently impair motility development”.
For the compound `CCCOC(=O)C(C)=O` [propyl-pyruvate], the “inhibition of sperm motility in vitro” value in data set [1] (37° C.) was “no effect on sperm motility”.
For the compound `Cc1ncc(C[n+]2csc(CCO)c2C)c(=O)[nH]1` [oxythiamine, reference compound], the “development of sperm motility” value in [1] (HTF with 1 mM compound) is reported as “appeared to inhibit the development of sperm motility”. Also, the “motility development” value in data set [2] (PBS with 1 mM compound) is “will permanently impair motility development”.
In the case of `O=CC[C@@H](O)[C@H](O)[C@H](O)CO` [2-deoxyglucose, reference compound], in data set [1] (HTF with 1 mM compound), the “development of sperm motility” value was “appeared to inhibit the development of sperm motility”. Moreover, in data set [2] (PBS with 1 mM compound), the “motility development” value is “will permanently impair motility development”.
Take `CCOC(=O)C(C)=O` [ethyl-pyruvate]: the “inhibition of sperm motility in vitro” value in data set [1] (37° C.) is “None of the treatments resulted in inhibition of sperm motility”; in data set [1] (37° C., listed as ethyl pyruvate) it was “no effect on sperm motility”.
Take `CC(=O)C(=O)OCCC(C)C` [isoamyl-pyruvate]: the “inhibition of sperm motility in vitro” value in data set [1] (37° C.) is recorded as “no effect on sperm motility”.
Consider `O=C(O)C(=O)CBr` [3BP, 3-bromo-2-oxopropanoic acid], for which, in the data set with sperm ATP production, the “sperm ATP production” value is given as “can effectively block sperm ATP production”. Also, in the data set on human "swim-up" sperm [3] (37° C., swim-up sperm in HTF), the “time to abolish motility of motile human sperm” value is 1 to 5 min. Besides, the “exposure time to permanent immobilization with complete loss of motility” value with human "swim-up" sperm [3] (activated human sperm (HTF 30 minutes, 37° C.)) is “less than 1 minute”; in data set [6] it was “less than 1 minute”; in data set [2] (1 mM 3BP, murine non-activated sperm collected from the epididymis into physiological saline), “less than 1 minute”. In addition, in the data set on human semen, the “time to completely abolish human sperm motility” value is not above 5 min. Further, the EC50 – broadly, the concentration that produces a half-maximal response – in the data set with human "swim-up" sperm [4] (Homo sapiens, Sperm, pH 5, human sperm, pH 5.0) was 14 mM; in the data set with human "swim-up" sperm [4] (human sperm, pH 5.0), approximately 13 mM; in the data set on mouse epididymal sperm (pH 4.8, read-out: EC50 (50% of motile sperm immobilized within 20 seconds of contact)) it was approximately 5 mM; in the data set on mouse epididymal sperm (pH 7.5, read-out: EC50 (50% of motile sperm immobilized within 20 seconds of contact)), 40 to 50 mM. The “EC100 (100% of motile sperm immobilized within 20 seconds of contact)” value with human "swim-up" sperm [4] (human sperm, pH 5.0) was 23 mM and ~24 mM; in the data set on human "swim-up" sperm [4] (human sperm, pH 7.5), approximately 200 mM; in the data set with mouse epididymal sperm (pH 4.8), approximately 17 mM; with mouse epididymal sperm (pH 7.5), approximately 100 mM. Further, the “sperm mitochondrial membrane potential” value in [5] is given as “inhibition of sperm mitochondrial membrane potential; also recorded: could inhibit the mitochondrial membrane potential”. Moreover, the “time to complete loss of sperm motility” value in data set [1] (HTF with 1 mM 3BP, 37° C.) was not above 10 min. The “development of sperm motility” value in data set [1] (HTF with 1 mM compound) is “almost completely blocked the development of sperm motility”. Besides, the “motility developed in HTF after exposure and washing” value in [2] is “irreversible”; in data set [2] (listed as 3-BrPA), “No motility was developed”. Further, the “motility development” value in [2] (PBS with 1 mM compound) is recorded as “permanent; also recorded: could not develop motility”. Moreover, in data set [7], the “histology of the vagina and uterus” value is recorded as “no significant changes in the histology; also recorded: No discernible pathological changes were observed”.

(Values after patent US20150359763A1, “USE OF 3-BROMOPYRUVATE AS A CONTRACEPTIVE” (Board of Regents of the Nevada System of Higher Education, …, priority 2013, published 2015).)
